This test addresses T1, human M2 receptor (Homo sapiens, UniProt P08172).
T1 sequence (P08172 1-466): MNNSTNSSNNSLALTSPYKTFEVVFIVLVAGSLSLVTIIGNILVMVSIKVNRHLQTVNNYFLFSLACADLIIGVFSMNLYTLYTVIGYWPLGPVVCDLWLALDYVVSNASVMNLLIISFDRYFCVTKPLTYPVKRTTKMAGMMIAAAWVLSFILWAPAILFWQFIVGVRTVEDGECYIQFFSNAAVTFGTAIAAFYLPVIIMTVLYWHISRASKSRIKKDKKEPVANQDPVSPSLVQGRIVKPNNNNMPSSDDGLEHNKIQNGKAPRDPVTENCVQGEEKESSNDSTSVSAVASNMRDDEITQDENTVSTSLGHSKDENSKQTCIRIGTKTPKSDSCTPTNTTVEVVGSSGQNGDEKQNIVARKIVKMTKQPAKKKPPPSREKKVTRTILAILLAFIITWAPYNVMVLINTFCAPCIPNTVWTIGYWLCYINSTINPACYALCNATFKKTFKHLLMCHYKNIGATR
The following applies: for EC50: Receptor activity EC50, allosteric potency at EC20 acetylcholine, in some cases mean of two or more determinations.

The mark [1] stands for this setting: read-out: Efficiency, boosting of the acetylcholine effect at EC20 acetylcholine concentration, M2-GIRK1/4 reporter cells.

Like-named read-outs stand apart in the source and are kept apart here.

For the setting “M2-GIRK1/4 reporter cells”, `CC(NC(=O)c1cn(-c2c(F)cc(F)cc2F)c2nc(N3C[C@@H](O)CC3=O)ccc2c1=O)C1CCC1` (mixture of isomers) [Example 471, N-[1-Cyclobutylethyl]-7-[(4S)-4-hydroxy-2-oxopyrrolidin-1-yl]-4-oxo-1-(2,4,6-trifluorophenyl)-1,4-dihydro-1,8-naphthyridine-3-carboxamide] showed an EC50 of 10 nM. In addition, the Emax under setting [1] is 89%.

The compound `CC(NC(=O)c1cn(-c2c(F)cc(F)cc2F)c2nc(N3C[C@@H](O)[C@H](O)C3)ccc2c1=O)C1CCC1` (mixture of isomers) [Example 476, N-[1-Cyclobutylethyl]-7-[(3R,4R)-3,4-dihydroxypyrrolidin-1-yl]-4-oxo-1-(2,4,6-trifluorophenyl)-1,4-dihydro-1,8-naphthyridine-3-carboxamide] registered an EC50 (M2-GIRK1/4 reporter cells) of 18 nM. In addition, the Emax under setting [1] worked out at 98%.

`CCC(NC(=O)c1cn(-c2c(F)cc(F)cc2F)c2nc(N3C[C@@H](O)[C@H](O)C3)ccc2c1=O)C(C)C` (mixture of isomers) [Example 487, 7-[(3R,4R)-3,4-Dihydroxypyrrolidin-1-yl]-N-[2-methylpentan-3-yl]-4-oxo-1-(2,4,6-trifluorophenyl)-1,4-dihydro-1,8-naphthyridine-3-carboxamide]: for the setting “M2-GIRK1/4 reporter cells”, the EC50 came to 12 nM. In addition, the Emax under setting [1] came out at 96.5%.

As for `O=C(NC(C1CCC1)C(F)(F)F)c1cn(-c2c(F)cc(F)cc2F)c2nc(N3C[C@@H](O)CC3=O)ccc2c1=O` (mixture of isomers) [Example 505, N-[1-Cyclobutyl-2,2,2-trifluoroethyl]-7-[(4S)-4-hydroxy-2-oxopyrrolidin-1-yl]-4-oxo-1-(2,4,6-trifluorophenyl)-1,4-dihydro-1,8-naphthyridine-3-carboxamide], the midpoint of the response (M2-GIRK1/4 reporter cells), the EC50, lay at 6 nM. The Emax under setting [1] worked out at 100%.

On to `CC(NC(=O)c1cn(-c2c(F)cc(F)cc2F)c2nc(N3C[C@@H](O)CC3=O)ccc2c1=O)(C1CC1)C(F)(F)F` (mixture of isomers) [Example 508, N-[2-Cyclopropyl-1,1,1-trifluoropropan-2-yl]-7-[(4S)-4-hydroxy-2-oxopyrrolidin-1-yl]-4-oxo-1-(2,4,6-trifluorophenyl)-1,4-dihydro-1,8-naphthyridine-3-carboxamide], for which it took 7 nM to reach a half-maximal effect (M2-GIRK1/4 reporter cells) (EC50). Further, the Emax under setting [1] was determined as 93.5%.

As to `O=C(NC(CC(F)(F)F)C1CC1)c1cn(-c2c(F)cc(F)cc2F)c2nc(N3C[C@@H](O)CC3=O)ccc2c1=O` (mixture of isomers) [Example 512, N-[1-Cyclopropyl-3,3,3-trifluoropropyl]-7-[(4S)-4-hydroxy-2-oxopyrrolidin-1-yl]-4-oxo-1-(2,4,6-trifluorophenyl)-1,4-dihydro-1,8-naphthyridine-3-carboxamide], the EC50 (M2-GIRK1/4 reporter cells) is 10 nM. Moreover, under setting [1], the Emax was 100%.

With `CCC(NC(=O)c1cn(-c2c(F)cc(F)cc2F)c2nc(N3C[C@@H](O)CC3=O)ccc2c1=O)C(F)(F)C(F)(F)F` (mixture of isomers) [Example 519, 7-[(4S)-4-Hydroxy-2-oxopyrrolidin-1-yl]-4-oxo-N-[1,1,1,2,2-pentafluoropentan-3-yl]-1-(2,4,6-trifluorophenyl)-1,4-dihydro-1,8-naphthyridine-3-carboxamide], under “M2-GIRK1/4 reporter cells”, a half-maximal response (EC50) required 3 nM. For the same compound, the Emax under setting [1] turned out to be 96.7%.

For `CCC(NC(=O)c1cn(-c2c(F)cc(F)cc2F)c2nc(N3C[C@@H](O)[C@H](O)C3)ccc2c1=O)C(F)(F)C(F)(F)F` (mixture of isomers) [Example 522, 7-[(3R,4R)-3,4-Dihydroxypyrrolidin-1-yl]-4-oxo-N-[1,1,1,2,2-pentauoropentan-3-yl]-1-(2,4,6-trifluorophenyl)-1,4-dihydro-1,8-naphthyridine-3-carboxamide], the Emax (read-out: Efficiency) was 92.8%.

For `CC(C)C(NC(=O)c1cn(-c2c(F)cc(F)cc2F)c2nc(N3C[C@@H](O)CC3=O)ccc2c1=O)C(F)(F)F` (mixture of isomers) [Example 526, 7-[(4S)-4-Hydroxy-2-oxopyrrolidin-1-yl]-4-oxo-N-[1,1,1-trifluoro-3-methylbutan-2-yl]-1-(2,4,6-trifluorophenyl)-1,4-dihydro-1,8-naphthyridine-3-carboxamide], it took 9 nM to reach a half-maximal effect (M2-GIRK1/4 reporter cells) (EC50). The Emax under setting [1] came to 100%.

As a reminder, the EC50 is the concentration needed to bring the measured effect to its halfway point. Higher therefore signals a less potent agent.

The record behind these values is patent US20190367516A1 (Bayer Pharma Aktiengesellschaft, priority 2015, published 2019).
